{"source": "patent US12208104B2", "about": "“Pharmaceutical compositions suitable for articular delivery and use thereof in treatment of joint pain” (TAIWAN LIPOSOME CO., LTD., priority 2018, dated 2025)", "origin": "cited, not measured here", "test_system": "cartilage", "conditions": "repeated intra-articular injections", "data": [{"smiles": "C[C@@H]1C[C@H]2[C@@H]3CCC4=CC(=O)C=C[C@]4(C)[C@@]3(F)[C@@H](O)C[C@]2(C)[C@@]1(O)C(=O)CO", "note": "[dexamethasone]", "values": [{"measurement": "cartilage damage", "value": "cartilage damage has been reported"}]}, {"smiles": "C[C@]12C=CC(=O)C=C1CC[C@H]1[C@@H]3C[C@@H](O)[C@](O)(C(=O)CO)[C@@]3(C)C[C@H](O)[C@@]12F", "note": "[triamcinolone]", "values": [{"measurement": "cartilage damage", "value": "cartilage damage has been reported"}]}]}
